Results reported in patent US6518243B1, “Desleucyl glycopeptide antibiotics and methods of making same” (Trustees of Princeton University, priority 1999, dated 2003).

What was measured:
Type in all cases: cell-based
S aureus ATCC 29213 = experiment: MIC determination in BHI media, OD600; conditions: BHI + 0.1% casamino acids, 18 hours at 37° C., ≧90% OD600 inhibition
Method: (§1) Logarithmically growing cells were diluted to approximately 5×10^5 CFU/ml and subjected to test compounds solubilized and serially diluted in DMSO. […] After 18 hours at 37° C., the OD600 was determined by reading the ninety-six well microtiter plates on a microplate reader. For a given concentration, an MIC determination was made if: […]

E. faecium ATCC 49624 = experiment: MIC determination in BHI media, OD600; conditions: BHI + 0.1% casamino acids, 18 hours at 37° C., ≧90% OD600 inhibition
Method: as §1

S. Aureus ATCC 33591 = experiment: MIC determination in BHI media, OD600; conditions: BHI + 0.1% casamino acids, 18 hours at 37° C., ≧90% OD600 inhibition
Method: as §1

[1] = test system: S. epidermidis (ATCC 12228); experiment: Zone of inhibition screen, 96 well agar array format; parameters: scale not given here
Method in brief: (§2)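 Read-out is antibacterial activity on agar laid out as a 96-well array; every compound went through all strains of the panel.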

S. aureus (ATCC 29213) = experiment: as above; parameters: scale not given here
Method in brief: as §2

E. faecalis (CL 4877) = experiment: as above; parameters: scale not given here; conditions: zone of inhibition relative to 1 mg/ml p-chlorobiphenylvancomycin
Method in brief: as §2

[2] = zone of inhibition relative to 1 mg/ml stock solution of p-chlorobiphenylvancomycin
[3] = zone of inhibition relative to 1 mg/ml p-chlorobiphenylvancomycin

| MIC S. aureus ATCC 29213 (S aureus ATCC 29213) [µg/mL] | MIC E. faecium ATCC 49624 (E. faecium ATCC 49624) [µg/mL] | MIC S. aureus ATCC 33591 (S. Aureus ATCC 33591) [µg/mL] | Compound | zone score, S. epidermidis ATCC 12228 [1, 2] | zone score, S. aureus ATCC 29213 (S. aureus (ATCC 29213); [2]) | zone score, E. faecalis CL 4877 (E. faecalis (CL 4877)) | zone score, S. epidermidis ATCC 12228 [1, 3] | zone score, S. aureus ATCC 29213 (S. aureus (ATCC 29213); [3]) |
| --- | --- | --- | --- | --- | --- | --- | --- | --- |
| 0.78 | 0.39 | 0.78 | C[C@H]1O[C@H](O[C@H]2[C@H](Oc3c4cc5cc3Oc3ccc(cc3Cl)[C@@H](O)[C@@H](NC(=O)[C@@H](N)Cc3c[nH]c6ccccc36)C(=O)N[C@@H](CC(N)=O)C(=O)N[C@H]5C(=O)N[C@H]3C(=O)N[C@H](C(=O)N[C@@H](C(=O)O)c5cc(O)cc(O)c5-c5cc3ccc5O)[C@H](O)c3ccc(c(Cl)c3)O4)O[C@H](CO)[C@@H](O)[C@@H]2O)C[C@@](C)(NCc2ccc(-c3ccc(Cl)cc3)cc2)[C@H]1O [Compound 12] | 2 | 2 | – | – | – |
| 0.25 | 0.78 | 0.78 | COCCOCC(=O)NC1C(=O)NC(CC(N)=O)C(=O)NC2C(=O)NC3C(=O)NC(C(=O)NC(C(=O)O)c4cc(O)cc(O)c4-c4cc3ccc4O)C(O)c3ccc(c(Cl)c3)Oc3cc2cc(c3OC2OC(CO)C(O)C(O)C2OC2CC(C)(NCc3ccc(-c4ccc(Cl)cc4)cc3)C(O)C(C)O2)Oc2ccc(cc2Cl)C1O (stereo not drawn) [Compound 100] | – | 2 | – | – | – |
| – | – | – | CC1OC(OC2C(Oc3c4cc5cc3Oc3ccc(cc3Cl)C(O)C3NC(=O)C(NC(=O)C5NC(=O)C(CC(N)=O)NC(=O)C(NC(=O)c5ccc(F)cc5)C(O)c5ccc(c(Cl)c5)O4)c4ccc(O)c(c4)-c4c(O)cc(O)cc4C(C(=O)O)NC3=O)OC(CO)C(O)C2O)CC(C)(NCc2ccc(-c3ccc(Cl)cc3)cc2)C1O (stereo not drawn) [Compound 270] | – | – | 2 | 2 | 2 |
| – | – | – | CC1OC(OC2C(Oc3c4cc5cc3Oc3ccc(cc3Cl)C(O)C3NC(=O)C(NC(=O)C5NC(=O)C(CC(N)=O)NC(=O)C(NC(=O)c5c[nH]cn5)C(O)c5ccc(c(Cl)c5)O4)c4ccc(O)c(c4)-c4c(O)cc(O)cc4C(C(=O)O)NC3=O)OC(CO)C(O)C2O)CC(C)(NCc2ccc(-c3ccc(Cl)cc3)cc2)C1O (stereo not drawn) [Compound 272] | – | – | 2 | 2 | 2 |
| – | – | – | CC1OC(OC2C(Oc3c4cc5cc3Oc3ccc(cc3Cl)C(O)C3NC(=O)C(NC(=O)C5NC(=O)C(CC(N)=O)NC(=O)C(NC(=O)c5ccc(N)cc5O)C(O)c5ccc(c(Cl)c5)O4)c4ccc(O)c(c4)-c4c(O)cc(O)cc4C(C(=O)O)NC3=O)OC(CO)C(O)C2O)CC(C)(NCc2ccc(-c3ccc(Cl)cc3)cc2)C1O (stereo not drawn) [Compound 274] | – | – | 2 | 2 | 2 |
| – | – | – | Cc1oncc1C(=O)NC1C(=O)NC(CC(N)=O)C(=O)NC2C(=O)NC3C(=O)NC(C(=O)NC(C(=O)O)c4cc(O)cc(O)c4-c4cc3ccc4O)C(O)c3ccc(c(Cl)c3)Oc3cc2cc(c3OC2OC(CO)C(O)C(O)C2OC2CC(C)(NCc3ccc(-c4ccc(Cl)cc4)cc3)C(O)C(C)O2)Oc2ccc(cc2Cl)C1O (stereo not drawn) [Compound 275] | – | – | 2 | 2 | 2 |
| – | – | – | CC1OC(OC2C(Oc3c4cc5cc3Oc3ccc(cc3Cl)C(O)C3NC(=O)C(NC(=O)C5NC(=O)C(CC(N)=O)NC(=O)C(NC(=O)c5ccc6[nH]nnc6c5)C(O)c5ccc(c(Cl)c5)O4)c4ccc(O)c(c4)-c4c(O)cc(O)cc4C(C(=O)O)NC3=O)OC(CO)C(O)C2O)CC(C)(NCc2ccc(-c3ccc(Cl)cc3)cc2)C1O (stereo not drawn) [Compound 281] | – | – | 2 | 2 | 2 |
| – | – | – | CC1OC(OC2C(Oc3c4cc5cc3Oc3ccc(cc3Cl)C(O)C3NC(=O)C(NC(=O)C5NC(=O)C(CC(N)=O)NC(=O)C(NC(=O)C(F)F)C(O)c5ccc(c(Cl)c5)O4)c4ccc(O)c(c4)-c4c(O)cc(O)cc4C(C(=O)O)NC3=O)OC(CO)C(O)C2O)CC(C)(NCc2ccc(-c3ccc(Cl)cc3)cc2)C1O (stereo not drawn) [Compound 285] | – | – | 2 | 2 | 2 |
| – | – | – | CC1OC(OC2C(Oc3c4cc5cc3Oc3ccc(cc3Cl)C(O)C(NC(=O)C(F)(F)C(F)(F)C(F)(F)F)C(=O)NC(CC(N)=O)C(=O)NC5C(=O)NC3C(=O)NC(C(=O)NC(C(=O)O)c5cc(O)cc(O)c5-c5cc3ccc5O)C(O)c3ccc(c(Cl)c3)O4)OC(CO)C(O)C2O)CC(C)(NCc2ccc(-c3ccc(Cl)cc3)cc2)C1O (stereo not drawn) [Compound 290] | – | – | 2 | 2 | 2 |
| – | – | – | CC1OC(OC2C(Oc3c4cc5cc3Oc3ccc(cc3Cl)C(O)C3NC(=O)C(NC(=O)C5NC(=O)C(CC(N)=O)NC(=O)C(NC(=O)c5cc6ccccc6[nH]5)C(O)c5ccc(c(Cl)c5)O4)c4ccc(O)c(c4)-c4c(O)cc(O)cc4C(C(=O)O)NC3=O)OC(CO)C(O)C2O)CC(C)(NCc2ccc(-c3ccc(Cl)cc3)cc2)C1O (stereo not drawn) [Compound 291] | – | – | 2 | 2 | 2 |
| – | – | – | C=C(CC(=O)OC)C(=O)NC1C(=O)NC(CC(N)=O)C(=O)NC2C(=O)NC3C(=O)NC(C(=O)NC(C(=O)O)c4cc(O)cc(O)c4-c4cc3ccc4O)C(O)c3ccc(c(Cl)c3)Oc3cc2cc(c3OC2OC(CO)C(O)C(O)C2OC2CC(C)(NCc3ccc(-c4ccc(Cl)cc4)cc3)C(O)C(C)O2)Oc2ccc(cc2Cl)C1O (stereo not drawn) [Compound 293] | – | – | 2 | 2 | 2 |
| – | – | – | CC1OC(OC2C(Oc3c4cc5cc3Oc3ccc(cc3Cl)C(O)C3NC(=O)C(NC(=O)C5NC(=O)C(CC(N)=O)NC(=O)C(NC(=O)c5ccccc5SCCS(=O)(=O)c5ccc(Cl)cc5)C(O)c5ccc(c(Cl)c5)O4)c4ccc(O)c(c4)-c4c(O)cc(O)cc4C(C(=O)O)NC3=O)OC(CO)C(O)C2O)CC(C)(NCc2ccc(-c3ccc(Cl)cc3)cc2)C1O (stereo not drawn) [Compound 301] | – | – | 2 | 2 | 2 |
| – | – | – | CC1OC(OC2C(Oc3c4cc5cc3Oc3ccc(cc3Cl)C(O)C3NC(=O)C(NC(=O)C5NC(=O)C(CC(N)=O)NC(=O)C(NC(=O)c5ccccn5)C(O)c5ccc(c(Cl)c5)O4)c4ccc(O)c(c4)-c4c(O)cc(O)cc4C(C(=O)O)NC3=O)OC(CO)C(O)C2O)CC(C)(NCc2ccc(-c3ccc(Cl)cc3)cc2)C1O (stereo not drawn) [Compound 312] | – | – | 2 | 2 | 2 |
| – | – | – | CC1OC(OC2C(Oc3c4cc5cc3Oc3ccc(cc3Cl)C(O)C3NC(=O)C(NC(=O)C5NC(=O)C(CC(N)=O)NC(=O)C(NC(=O)c5cccc[n+]5[O-])C(O)c5ccc(c(Cl)c5)O4)c4ccc(O)c(c4)-c4c(O)cc(O)cc4C(C(=O)O)NC3=O)OC(CO)C(O)C2O)CC(C)(NCc2ccc(-c3ccc(Cl)cc3)cc2)C1O (stereo not drawn) [Compound 313] | – | – | 2 | 2 | 2 |
| – | – | – | CC(=O)C(=O)NC1C(=O)NC(CC(N)=O)C(=O)NC2C(=O)NC3C(=O)NC(C(=O)NC(C(=O)O)c4cc(O)cc(O)c4-c4cc3ccc4O)C(O)c3ccc(c(Cl)c3)Oc3cc2cc(c3OC2OC(CO)C(O)C(O)C2OC2CC(C)(NCc3ccc(-c4ccc(Cl)cc4)cc3)C(O)C(C)O2)Oc2ccc(cc2Cl)C1O (stereo not drawn) [Compound 314] | – | – | 2 | 2 | 2 |
| – | – | – | CC1OC(OC2C(Oc3c4cc5cc3Oc3ccc(cc3Cl)C(O)C3NC(=O)C(NC(=O)C5NC(=O)C(CC(N)=O)NC(=O)C(NC(=O)C=Cc5c[nH]cn5)C(O)c5ccc(c(Cl)c5)O4)c4ccc(O)c(c4)-c4c(O)cc(O)cc4C(C(=O)O)NC3=O)OC(CO)C(O)C2O)CC(C)(NCc2ccc(-c3ccc(Cl)cc3)cc2)C1O (stereo not drawn) [Compound 321] | – | – | 2 | 2 | 2 |
| – | – | – | COCCC(N)C(=O)NC1C(=O)NC(CC(N)=O)C(=O)NC2C(=O)NC3C(=O)NC(C(=O)NC(C(=O)O)c4cc(O)cc(O)c4-c4cc3ccc4O)C(O)c3ccc(c(Cl)c3)Oc3cc2cc(c3OC2OC(CO)C(O)C(O)C2OC2CC(C)(NCc3ccc(-c4ccc(Cl)cc4)cc3)C(O)C(C)O2)Oc2ccc(cc2Cl)C1O (stereo not drawn) [Compound 322] | – | – | 2 | 2 | 2 |
| – | – | – | CC(O)C(N)C(=O)NC1C(=O)NC(CC(N)=O)C(=O)NC2C(=O)NC3C(=O)NC(C(=O)NC(C(=O)O)c4cc(O)cc(O)c4-c4cc3ccc4O)C(O)c3ccc(c(Cl)c3)Oc3cc2cc(c3OC2OC(CO)C(O)C(O)C2OC2CC(C)(NCc3ccc(-c4ccc(Cl)cc4)cc3)C(O)C(C)O2)Oc2ccc(cc2Cl)C1O (stereo not drawn) [Compound 323] | – | – | 2 | 2 | 2 |
| 0.78 | 0.39 | 0.78 | CNC(COCc1ccccc1)C(=O)NC1C(=O)NC(CC(N)=O)C(=O)NC2C(=O)NC3C(=O)NC(C(=O)NC(C(=O)O)c4cc(O)cc(O)c4-c4cc3ccc4O)C(O)c3ccc(c(Cl)c3)Oc3cc2cc(c3OC2OC(CO)C(O)C(O)C2OC2CC(C)(NCc3ccc(-c4ccc(Cl)cc4)cc3)C(O)C(C)O2)Oc2ccc(cc2Cl)C1O (stereo not drawn) [Compound 331] | – | – | – | – | – |
| 0.78 | 0.39 | 0.39 | CC1OC(OC2C(Oc3c4cc5cc3Oc3ccc(cc3Cl)C(O)C3NC(=O)C(NC(=O)C5NC(=O)C(CC(N)=O)NC(=O)C(NC(=O)C(N)Cc5c[nH]cn5)C(O)c5ccc(c(Cl)c5)O4)c4ccc(O)c(c4)-c4c(O)cc(O)cc4C(C(=O)O)NC3=O)OC(CO)C(O)C2O)CC(C)(NCc2ccc(-c3ccc(Cl)cc3)cc2)C1O (stereo not drawn) [Compound 555] | – | – | – | – | – |
